# Assay results from PMC10222686, “Synthesis and Molecular Docking Studies of Alkoxy- and Imidazole-Substituted Xanthones as α-Amylase and α-Glucosidase Inhibitors” (Molecules, 2023).
# Experiments:
# α-Glucosidase [1] = conditions: Figure 1; reference not given; cited from earlier work
# α-glucosidase [2] = experiment: α-Glucosidase inhibition assay (p-NPG substrate); type: biochemical, Saccharomyces cerevisiae; conditions: mean ± SD, n = 4
# Protocol: The inhibitory activity of the compounds on α-glucosidase inhibition was quantified according to the method described by Salehi et al., with slight modifications [64]. A reaction was prepared by mixing 20 µL α-glucosidase solution (0.5 unit/mL), 120 µL 0.1 M phosphate buffer (pH 6.9), and 10 µL of the samples at concentrations from 400 µM to 4.0 µM. The solution was incubated in a 96-well microplate at 37 °C for 15 min. The enzymatic reaction was initiated by adding 20 µL of 5 mM p-NPG solution to 0.1 M phosphate buffer (pH 6.9), followed by incubation at 37 °C for 15 min. The reaction was stopped by adding 80 µL of 0.2 M sodium carbonate solution, and absorbance was read at 405 nm in a microplate reader (Epoch®, BioTek Instrument, Winooski, EUA). The reaction system without any test compounds was used as control, whereas the system without α-glucosidase served as blank for correcting background absorbance. The rate of α-glucosidase inhibition exerted by each sample was calculated with Equation (1):(1) % inhibition=Control absorbance−sample absorbance/Control absorbance×100
# (§2) All measurements were performed in quadruplicate and the values are expressed as the mean ± standard deviation.
# α-amylase [3] = target: T1, α-amylase (Sus scrofa, UniProt P00690); experiment: α-Amylase inhibition assay (starch/DNS); type: biochemical, porcine; conditions: mean ± SD, n = 4; for inhibition at 100 µM: NI = no inhibition; for IC50: compounds precipitate at 200 µM;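 for all read-outs here: reducing sugar measured by DNS colour at 540 nm, inhibition relative to enzyme reaction lacking test compound, blank without enzyme subtracted for background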
# T1 construct: purchased Sigma-Aldrich; host or cells: porcine pancreas
# T1 sequence (P00690 16-511): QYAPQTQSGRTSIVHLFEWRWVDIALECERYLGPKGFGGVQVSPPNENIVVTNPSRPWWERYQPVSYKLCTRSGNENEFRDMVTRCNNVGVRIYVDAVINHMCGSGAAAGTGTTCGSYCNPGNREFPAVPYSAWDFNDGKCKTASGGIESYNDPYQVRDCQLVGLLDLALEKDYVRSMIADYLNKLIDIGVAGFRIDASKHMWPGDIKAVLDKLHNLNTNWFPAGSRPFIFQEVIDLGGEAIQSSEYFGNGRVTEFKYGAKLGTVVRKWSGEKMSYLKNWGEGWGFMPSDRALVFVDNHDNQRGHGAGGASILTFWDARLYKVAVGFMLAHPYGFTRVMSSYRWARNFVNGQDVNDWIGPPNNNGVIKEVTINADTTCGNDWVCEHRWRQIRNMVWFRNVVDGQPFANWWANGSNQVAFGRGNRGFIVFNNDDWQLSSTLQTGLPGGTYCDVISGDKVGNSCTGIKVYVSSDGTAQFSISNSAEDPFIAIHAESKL
# Protocol: α-Amylase inhibitory activity was quantified according to the method developed by Chokki et al., with some modifications [65]. […] Finally, 100 µL of 3,5-dinitrosalicylic acid (DNS) was added and heated at 100 °C for 20 min, and absorbance was then read at 540 nm in a microplate reader (Epoch, BioTek®). The reaction system without any test compound was used as the control, and the system without α-amylase served as a blank for correcting background absorbance. The percentage of α-amylase inhibition was calculated for each sample with Equation (2):(2) % inhibition=Control absorbance−sample absorbance/Control absorbance×100
# as §2
# α-glucosidase [4] = experiment: Enzymatic kinetic study on α-glucosidase (Lineweaver–Burk); type: biochemical, Saccharomyces cerevisiae; conditions: for Type of inhibition of α-glucosidase: Lineweaver–Burk plots; for Ki: p-NPG 0.5–5.0 mM, nonlinear regression
# Protocol: The X-axis values represent the reciprocal for the α-glucosidase substrate, p-nitrophenyl-α-D-glucopyranoside (p-NPG), while for the α-amylase substrate they represent starch, thus being 1/(starch). The Y-axis values are the reciprocal of the reaction velocity (Vo), thus being 1/Vo.
# (§1) To explore the type of enzyme inhibition, kinetic studies were carried out with α-glucosidase and α-amylase using a methodology such as that described in the inhibitory activity assays. The alkoxy-substituted xanthones were evaluated at four different concentrations according to their IC50. Various concentrations of substrates were used for each of the enzymes in the range of 0.5–5.0 mM for p-NPG in α-glucosidase and 0.1–1.0% for α-amylase. The type of inhibition for each test compound was determined by utilizing double reciprocal plots. Inhibition constants (KI) were calculated from substrate versus reaction rate curves using nonlinear regression of the enzyme inhibition kinetic function.
# α-amylase [5] = target: T1, α-amylase; experiment: Enzymatic kinetic study on α-amylase (Lineweaver–Burk); type: biochemical, porcine; conditions: for Type of inhibition of α-amylase: Lineweaver–Burk plots; for Ki: starch 0.1–1.0%, nonlinear regression
# Protocol: These KI values indicate that 6c has greater affinity for the enzyme.
# as §1
# [6] = DPPH radical scavenging assay; conditions: mean ± SD, n = 4
# Protocol: The scavenging of free radicals by the synthesized compounds was assessed based on the previously reported DPPH radical assay, with slight modifications. The reaction mixture consisted of 50 µL of compound in DMSO at various concentrations (from 2.5 mM to 0.2 mM) and 150 µL of DPPH solution at 133.33 µM in absolute ethanol. The reaction components were added at a ratio of 1:3 (v/v). The mixture was incubated at 37 °C for 30 min before absorbance was read at 517 nm using a microplate reader (Epoch, BioTek®). Butylhydroxytoulene (BHT) served as the positive control. Scavenging capacity (%) is expressed as the percentage decrease in DPPH. SC% = [(Acontrol − Atest)/Acontrol] × 100 where Acontrol is absorbance of the DPPH solution (control) and Atest is the absorbance of the solution of DPPH and one of the compounds.
melting point [°C],SMILES,IC50 (α-Glucosidase [1]) [µM],α-Glucosidase Inhibition (%) at 400 µM (α-glucosidase [2]) [%],IC50 (α-glucosidase [2]) [µM],inhibition at 100 µM (α-amylase [3]) [%],IC50 (α-amylase [3]) [µM],Type of inhibition of α-glucosidase (α-glucosidase [4]),Ki (α-glucosidase [4]) [µM],Type of inhibition of α-amylase (α-amylase [5]),Ki (α-amylase [5]) [µM],% DPPH Scavenging Activity (2.5 mM) [6]
–,O=c1c2c(O)cc(O)cc2oc2cc(O)c(-c3c(O)ccc4ccc(O)cc34)c(O)c12 [Dihydroxynaphtalenyl-xanthone],47.6,–,–,–,–,–,–,–,–,–
–,"COc1c(O)cc2oc3cc(O)c(CC=C(C)C)c(O)c3c(=O)c2c1CC=C(C)C [α-Mangostin, α-mangostin]",5,–,–,–,–,–,–,–,–,–
–,"COc1cc2oc3ccccc3c(=O)c2cc1OCCCCn1ccnc1-c1ccc(Cl)cc1 [Compound 10c, 2-(4-(2-(4-Chlorophenyl)-1H-imidazol-1-yl)butoxy)-3-methoxy-9H-xanthen-9-one]",–,95.1 ± 0.15,232.7 ± 0.11,99.5 ± 0.1,5.4 ± 0.07,mixed mode,139,mixed-type inhibitor,2.2,"11.6 ± 1.54 ^F,G %"
–,Clc1ccc(-c2nc(-c3ccccc3)n3c2-c2[nH]c4ccccc4c2CC3)cc1 [Carbazole-imidazole],81,–,–,–,–,–,–,–,–,–
–,Cc1cc(C)n(-c2ccc(-n3c(-c4ccccc4)nc(-c4ccccc4)c3-c3ccccc3)cc2)n1 [Imidazole-pyrazole],105,–,–,–,–,–,–,–,–,–
175 to 176,"COc1cc2oc3ccccc3c(=O)c2cc1OCC(=O)c1ccc(Cl)cc1 [Compound 6c, 2-(2-(4-Chlorophenyl)-2-oxoethoxy)-3-methoxy-9H-xanthen-9-one]",–,92.6 ± 0.11,16 ± 0.03,64.8 ± 0.15,76.7 ± 0.03,mixed mode,21.5,competitive type of inhibitor,63.2,8.7 ± 0.67 ^G %
146 to 148,"COc1cc2oc3ccccc3c(=O)c2cc1OCC(O)Cn1ccnc1 (centres unmarked) [Compound 12a, 2-(2-Hydroxy-3-(1H-imidazol-1-yl)propoxy)-3-methoxy-9H-xanthen-9-one]",–,1.87 ± 0.47,> 400,< 0,–,–,–,–,–,1.1 ± 0.01 ^I %
–,"C=CCc1c(OCCCCBr)c(OC)cc2oc3ccccc3c(=O)c12 [Compound 9b, 1-Allyl-2-(4-bromobutoxy)-3-methoxy-9H-xanthen-9-one]",–,96.3 ± 0.2,4 ± 0.007,3.87 ± 0.11,> 200,mixed mode,1.25,–,–,17.6 ± 1.17 ^D %
116 to 118,"C=CCc1c(OCC(O)Cn2ccnc2-c2ccc(Cl)cc2)c(OC)cc2oc3ccccc3c(=O)c12 (centres unmarked) [Compound 12f, 1-Allyl-2-(3-(2-(4-chlorophenyl)-1H-imidazol-1-yl)-2-hydroxypropoxy)-3-methoxy-9H-xanthen-9-one]",–,99.1 ± 1.31,71.9 ± 0.08,4.7 ± 0.32,> 200,–,–,–,–,18.1 ± 1.57 ^D %

SMILES,melting point [°C],IC50 (α-Glucosidase [1]) [µM],α-Glucosidase Inhibition (%) at 400 µM (α-glucosidase [2]) [%],IC50 (α-glucosidase [2]) [µM],inhibition at 100 µM (α-amylase [3]) [%],IC50 (α-amylase [3]) [µM],Type of inhibition of α-glucosidase (α-glucosidase [4]),Ki (α-glucosidase [4]) [µM],Type of inhibition of α-amylase (α-amylase [5]),Ki (α-amylase [5]) [µM],% DPPH Scavenging Activity (2.5 mM) [6]
"C=CCc1c(OCCCCn2ccnc2-c2ccc(Cl)cc2)c(OC)cc2oc3ccccc3c(=O)c12 [Compound 10f, 1-Allyl-2-(4-(2-(4-chlorophenyl)-1H-imidazol-1-yl)butoxy)-3-methoxy-9H-xanthen-9-one]",90 to 92,–,99.4 ± 0.51,145.2 ± 0.17,93.3 ± 0.12,8.7 ± 0.06,–,–,–,–,"11.2 ± 1.02 ^F,G %"
